The structures appear in SMILES notation. pEC50, pIC50: −log10 of the molar value.

For test [1], the system named is Hepatitis C virus. Description: Antiviral activity against HCV 1a isolate H77 infected in EN5-3 cells by SEAP reporter gene assay. As to conditions: genotype 1a H77, EN5-3. The class given is functional, organism-based, Hepacivirus hominis.
A short description of test [2]: Inhibition of HCV 1a H77 NS5B polymerase after 3 hrs by [3H]UTP incorporation assay. On the set-up: species or system Hepatitis C virus (isolate H77).
In test [3] the test system is Hepatitis C virus. The test can be described thus: Antiviral activity against HCV 1b N infected in EN5-3 cells by SEAP reporter gene assay. As to conditions: genotype 1b strain N. The class given is functional, organism-based, Hepacivirus hominis.
Test [4] in a line: Inhibition of HCV 1b BK NS5B polymerase after 3 hrs by [3H]UTP incorporation assay. On the set-up: species or system Hepatitis C virus (isolate BK).

Turning to `CC(C)(C)CC[C@@]1(C)C(=O)/C(=C2/C=Cc3cc(NS(C)(=O)=O)ccc3N2)C(=O)c2ccccc21`, the figures for the pEC50 in the test on Hepatitis C virus [1] and with Hepatitis C virus [3] were 7.09 and 7.66, respectively. In addition, the pIC50 in test [2] was 7.77; in test [4] it was 7.54.

In the case of `CC(C)(C)CC[C@@]1(C)C(=O)/C(=C2/C=Cc3ccccc3N2)C(=O)c2ccccc21`, the pIC50 is 5.77 in test [2] and 5.26 in test [4].

For the compound `CC1=C/C(=C2\C(=O)c3ccccc3[C@@](C)(CCC(C)(C)C)C2=O)Nc2ccc(NS(C)(=O)=O)cc21`, the pEC50 in the test with Hepatitis C virus [1] was 6.87; with Hepatitis C virus [3] it was 7.70. In addition, the pIC50 in test [2] was 7.49; in test [4], 7.28.

For `CC(C)CCC1=C/C(=C2\C(=O)c3ccccc3[C@@](C)(CCC(C)(C)C)C2=O)Nc2ccc(NS(C)(=O)=O)cc21`, the pIC50 in test [2] is 5.37; in test [4], 5.99.

With `CN(C)C(=O)C1=C/C(=C2\C(=O)c3ccccc3[C@@](C)(CCC(C)(C)C)C2=O)Nc2ccc(NS(C)(=O)=O)cc21`, the pEC50 with Hepatitis C virus [1] was 6.03; with Hepatitis C virus [3], 7.00. Besides, the pIC50 in test [2] was 7.14; in test [4], 6.62.

Turning to `CNC(=O)C1=C/C(=C2\C(=O)c3ccccc3[C@@](C)(CCC(C)(C)C)C2=O)Nc2ccc(NS(C)(=O)=O)cc21`, the pEC50 in the test on Hepatitis C virus [1] was 5.98; in the test on Hepatitis C virus [3] it was 6.61. Besides, the values for the negative-log IC50 (pIC50) in test [2] and in test [4] were 6.88 and 6.48, respectively.

As for `CCOC(=O)C1=C/C(=C2\C(=O)c3ccccc3[C@@](C)(CCC(C)(C)C)C2=O)Nc2ccc(NS(C)(=O)=O)cc21`, the negative logarithm of the EC50 (pEC50) with Hepatitis C virus [1] was 5.51; with Hepatitis C virus [3] it was 6.18. Moreover, the pIC50 in test [2] is 6.50; in test [4] it was 6.13.

On to `CC(C)(C)CC[C@@]1(C)C(=O)/C(=C2/C=C(CO)c3cc(NS(C)(=O)=O)ccc3N2)C(=O)c2ccccc21`, for which the pEC50 in the test on Hepatitis C virus [1] is 6.11; with Hepatitis C virus [3], 7.30. The figures for the pIC50 in test [2] and in test [4] were 7.92 and 7.25, respectively.

As for `CC(C)(C)CC[C@@]1(C)C(=O)/C(=C2/C=C(C=O)c3cc(NS(C)(=O)=O)ccc3N2)C(=O)c2ccccc21`, the pEC50 is 5.92 in the test on Hepatitis C virus [1] and 6.77 in the test with Hepatitis C virus [3]. The pIC50 was 7.82 in test [2] and 7.60 in test [4].

As for `CC(C)(C)CC[C@@]1(C)C(=O)/C(=C2/C=C(C(=O)O)c3cc(NS(C)(=O)=O)ccc3N2)C(=O)c2ccccc21`, the results for the pEC50 with Hepatitis C virus [1] and in the test with Hepatitis C virus [3] were 5.48 and 6.66, respectively. The pIC50 in test [2] is 8.52; in test [4], 8.30.

As to `CC(C)(C)CC[C@@]1(C)C(=O)C(C2=NCc3cc(NS(C)(=O)=O)ccc3N2)=C(O)c2ccccc21`, the pIC50 in test [2] is 6.08; in test [4], 5.38.

For `CC(C)(C)CC[C@@]1(C)C(=O)C(C2=NS(=O)(=O)c3cc(NS(C)(=O)=O)ccc3N2)=C(O)c2ccccc21`, the pEC50 in the test with Hepatitis C virus [1] is 8.40; in the test with Hepatitis C virus [3], 8.70. In addition, the pIC50 in test [2] is 8.40; in test [4], 8.15.

The values above are taken from ChEMBL document CHEMBL1681718, “Hepatitis C NS5B polymerase inhibitors: functional equivalents for the benzothiadiazine moiety” (Bioorg Med Chem Lett, 2011).
